Here are results for 54 molecules from patent US10202388B2, “Fused-ring compounds, pharmaceutical composition and uses thereof” (SHANGHAI DE NOVO PHARMATECH CO., LTD., priority 2015, dated 2019).

The structures appear in SMILES notation.

Chain of HeLa cell based IDO1 (P14902 whole entry): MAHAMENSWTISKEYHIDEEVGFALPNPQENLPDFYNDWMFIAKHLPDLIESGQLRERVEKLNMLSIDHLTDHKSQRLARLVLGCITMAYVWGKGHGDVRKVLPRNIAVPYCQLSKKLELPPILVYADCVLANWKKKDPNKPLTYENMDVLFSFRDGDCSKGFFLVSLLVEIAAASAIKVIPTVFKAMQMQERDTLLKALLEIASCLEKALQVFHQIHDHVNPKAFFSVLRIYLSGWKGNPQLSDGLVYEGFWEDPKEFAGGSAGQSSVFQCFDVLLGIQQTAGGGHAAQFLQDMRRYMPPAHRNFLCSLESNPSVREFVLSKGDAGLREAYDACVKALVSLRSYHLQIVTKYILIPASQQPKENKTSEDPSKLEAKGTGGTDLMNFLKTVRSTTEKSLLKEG

The first assay has as its target HeLa cell based IDO1 (Homo sapiens (Human), UniProt P14902). The experiment in a line: Three-point IDO1 cellular assay (HeLa, 10, 100 and 1000 nM). The conditions noted are these: HeLa cells, at 10 nM, 100 ng/mL IFN-γ, 18 hours. The method, then: To perform the 3-point HeLa cell based IDO1 assay, HeLa cells were seeded at 25,000 cells per well into 96-well microplate in 100 μL of growth medium. Cells were incubated at 37° C. and 5% CO2 overnight. The next day 100 μL per well of diluted inhibitor in growth medium at 10, 100 and 1000 nM, respectively, was added at a final concentration of 100 ng/ML human IFN-γ. Cells were incubated at 37° C. in a CO2 incubator for 18 hours. […] The plate was incubated at 50° C. for 30 min to hydrolyze N-formylkynurenine produced by IDO1 to kynurenine. The plate was then centrifuged at 2500 rpm for 10 min to remove sediments. 100 μl of supernatant per well was transferred to another 96-well plate and mixed with 100 μL of 2% (w/v) 4-(Dimethylamino) benzaldehyde in acetic acid. The plate was incubated at room temperature for 10 minutes, the yellow color derived from kynurenine was recorded by measuring absorbance at 480 nm using a microplate reader (TECAN Infinite M1000 Pro). Cell based assays were performed in triplicate at each concentration. The absorbance data were analyzed using the computer software, Graphpad Prism. In the absence of the compound and presence of 100 ng/ML IFN-γ, the absorbance (At) in each data set was defined as 100%. The absorbance of medium blank (Ab) in each data set was defined as 0%. The percent absorbance in the presence of each compound was calculated according to the following equation: % Absorbance=(A−Ab)/(At−Ab), where A=the absorbance in the presence of the compound and IFN-γ, Ab=the absorbance of medium blank, and At=the absorbance in the absence of the compounds and presence of IFN-γ. The values of % absorbance versus the compound concentrations were then determined.
Consider `O=S(=O)(NC1C2CC3CC1CC(C(O)CC1c4c(F)cccc4-c4cncn41)(C3)C2)C1CCCC1` (stereo not drawn) [Compound 85A], for which the “inhibition values of %” value was “greater than 50%”.
One may read the inhibition as the share of the control response that was lost under treatment. High values mean a strong effect, low ones a weak effect. The molecule `Cc1ccc(CS(=O)(=O)NC2C3CC4CC2CC(C(O)CC2c5c(F)cccc5-c5cncn52)(C4)C3)cc1` (stereo not drawn) [Compound 70A] gave an inhibition at 0.01 µM of over 50%.
Molecule `O=S(=O)(CC1CCCCC1)NC1C2CC3CC1CC(C(O)CC1c4c(F)cccc4-c4cncn41)(C3)C2` (stereo not drawn) [Compound 65] yielded an inhibition at 0.01 µM of over 50%.
The molecule `O=S(=O)(Cc1ccccc1)NC1C2CC3CC1CC(C(O)CC1c4ccccc4-c4cncn41)(C3)C2` (stereo not drawn) [Compound 75A] displayed an inhibition at 0.01 µM of over 50%.
Still for that read-out and setting: for `O=S(=O)(CC1CCCC1)NC1C2CC3CC1CC(C(O)CC1c4c(F)cccc4-c4cncn41)(C3)C2` (stereo not drawn) [Compound 82A] the value was over 50%; for `OC(CC1c2c(F)cccc2-c2cncn21)C12CC3CC(C1)C(Nc1nc4ccccc4s1)C(C3)C2` (stereo not drawn) [Compound 126], over 50%.

The assay is the same for the next values; noted with them: HeLa cells, at 100 nM, 100 ng/mL IFN-γ, 18 hours.
Take `O=S(=O)(CC1CC1)NC1C2CC3CC1CC(C(O)CC1c4c(F)cccc4-c4cncn41)(C3)C2` (stereo not drawn) [Compound 68]: the inhibition at 0.1 µM was over 50%.
On the same count and under the same terms, for `O=C(Nc1ccc2ccccc2c1)NC1C2CC3CC1CC(C(O)CC1c4c(F)cccc4-c4cncn41)(C3)C2` (stereo not drawn) [Compound 110A] the value was over 50%; for `O=C(Cc1ccccc1)NC1C2CC3CC1CC(C(O)CC1c4ccccc4-c4cncn41)(C3)C2` (stereo not drawn) [Compound 53B], over 50%.
With `OC(CC1c2c(F)cccc2-c2cncn21)C12CC3CC(C1)C(Nc1nc4cccnc4o1)C(C3)C2` (stereo not drawn) [Compound 127], the “inhibition values of %” value is “greater than 50%”.
On to `O=C(Nc1ccc(Br)cc1)NC1C2CC3CC1CC(C(O)CC1c4c(F)cccc4-c4cncn41)(C3)C2` (stereo not drawn) [Compound 95A], for which the inhibition at 0.1 µM is over 50%.
`O=C(Nc1ccc(F)cc1)NC12CC3CC(C1)C(C(O)CC1c4ccccc4-c4cncn41)C(C3)C2` (stereo not drawn) [Compound 163A] registered an inhibition at 0.1 µM of over 50%.
Same read-out and setting: for `O=C(Nc1ccc(F)cc1F)NC1C2CC3CC1CC(C(O)CC1c4c(F)cccc4-c4cncn41)(C3)C2` (stereo not drawn) [Compound 105A] the value was over 50%.
As for `O=S(=O)(Nc1ccccc1)NC1C2CC3CC1CC(C(O)CC1c4ccccc4-c4cncn41)(C3)C2` (stereo not drawn) [Compound 151], the “inhibition values of %” value was “greater than 50%”.
As to `O=S(=O)(NC12CC3CC(C1)C(C(O)CC1c4ccccc4-c4cncn41)C(C3)C2)C1CC1` (stereo not drawn) [Compound 169A], the inhibition at 0.1 µM was over 50%.
`O=C(NC1CCCCC1)NC1C2CC3CC1CC(C(O)CC1c4c(F)cccc4-c4cncn41)(C3)C2` (stereo not drawn) [Compound 96A] showed an inhibition at 0.1 µM of over 50%.
Consider `O=C(NCC1CC1)NC1C2CC3CC1CC(C(O)CC1c4c(F)cccc4-c4cncn41)(C3)C2` (stereo not drawn) [Compound 107A], for which the inhibition at 0.1 µM is over 50%.
With `O=C1N(c2ccc(F)cc2)CCN1C1C2CC3CC1CC(C(O)CC1c4c(F)cccc4-c4cncn41)(C3)C2` (stereo not drawn) [Compound 122], the “inhibition values of %” value is “greater than 50%”.
The molecule `O=C(NCC1CCC1)NC1C2CC3CC1CC(C(O)CC1c4c(F)cccc4-c4cncn41)(C3)C2` (stereo not drawn) [Compound 111A] displayed an inhibition at 0.1 µM of over 50%.
Turning to `Cc1ccc(CC(=O)NC23CC4CC(C2)C(C(O)CC2c5c(F)cccc5-c5cncn52)C(C4)C3)cc1` (stereo not drawn) [Compound 193A], the inhibition at 0.1 µM was over 50%.
Molecule `Cc1ccc(NC(=O)NC23CC4CC(C2)C(C(O)CC2c5ccccc5-c5cncn52)C(C4)C3)cc1` (stereo not drawn) [Compound 164A] yielded an inhibition at 0.1 µM of over 50%.
The same measure, in the same setting: in the case of `Cc1ccc(NS(=O)(=O)NC2C3CC4CC2CC(C(O)CC2c5ccccc5-c5cncn52)(C4)C3)cc1` (stereo not drawn) [Compound 153] it was over 50%.
`O=C(CC1CCCCC1)NC12CC3CC(C1)C(C(O)CC1c4c(F)cccc4-c4cncn41)C(C3)C2` (stereo not drawn) [Compound 192A]: the inhibition at 0.1 µM was over 50%.
Same read-out and setting: in the case of `CS(=O)(=O)NC1C2CC3CC1CC(C(O)CC1c4c(F)cccc4-c4cncn41)(C3)C2` (stereo not drawn) [Compound 46A] it was over 50%.
As to `OC(COC1C2CC3CC1CC(C(O)CC1c4c(F)cccc4-c4cncn41)(C3)C2)c1ccccc1` (stereo not drawn) [Compound 136], the “inhibition values of %” value is “greater than 50%”.
`O=C(Nc1ccc(F)cc1)NC1C2CC3CC1CC(C(O)CC1c4c(F)cccc4-c4cncn41)(C3)C2` (stereo not drawn) [Compound 93B] yielded an inhibition at 0.1 µM of over 50%.
Consider `OC(CC1c2c(F)cccc2-c2cncn21)C12CC3CC(C1)C(OCCN1CCOCC1)C(C3)C2` (stereo not drawn) [Compound 135A], for which the inhibition at 0.1 µM was over 50%.

The assay is the same for the next values; noted with them: HeLa cells, at 1000 nM, 100 ng/mL IFN-γ, 18 hours.
For the molecule `CC(=O)Nc1ccc(S(=O)(=O)NC23CC4CC(C2)C(C(O)CC2c5ccccc5-c5cncn52)C(C4)C3)cc1` (stereo not drawn) [Compound 201A], the inhibition at 1 µM was over 50%.
Take `OCCC1(O)C2CC3CC1CC(C(O)CC1c4c(F)cccc4-c4cncn41)(C3)C2` (stereo not drawn) [Compound 142]: the “inhibition values of %” value was “greater than 50%”.
Consider `O=C(NCC1CCOC1)NC1C2CC3CC1CC(C(O)CC1c4c(F)cccc4-c4cncn41)(C3)C2` (stereo not drawn) [Compound 112A], for which the inhibition at 1 µM is over 50%.
As to `N#Cc1ccc(NC(=O)NC23CC4CC(C2)C(C(O)CC2c5c(F)cccc5-c5cncn52)C(C4)C3)cc1` (stereo not drawn) [Compound 191A], the inhibition at 1 µM was over 50%.
`CC(=O)c1ccc(NC(=O)NC2C3CC4CC2CC(C(O)CC2c5ccccc5-c5cncn52)(C4)C3)cc1` (stereo not drawn) [Compound 104] gave an inhibition at 1 µM of over 50%.
In turn, `N#Cc1ccc(C2(O)C3CC4CC2CC(C(O)CC2c5c(F)cccc5-c5cncn52)(C4)C3)cc1` (stereo not drawn) [Compound 145] yielded an inhibition at 1 µM of over 50%.
In turn, `OC(CC1c2c(F)cccc2-c2cncn21)C12CC3CC(C1)N(c1ncc(-c4ccccc4)o1)C(C3)C2` (stereo not drawn) [Compound 210] returned an inhibition at 1 µM of over 50%.
On the same count and under the same terms, for `O=C(Cc1ccncc1)NC1C2CC3CC1CC(C(O)CC1c4ccccc4-c4cncn41)(C3)C2` (stereo not drawn) [Compound 50A] the value was over 50%.
In the case of `O=S(=O)(CC1CCCCC1)NC12CC3CC(C1)C(C(O)CC1c4ccccc4-c4cncn41)C(C3)C2` (stereo not drawn) [Compound 170A-A], the inhibition at 1 µM was over 50%.
`O=C(Nc1cccnc1)NC1C2CC3CC1CC(C(O)CC1c4c(F)cccc4-c4cncn41)(C3)C2` (stereo not drawn) [Compound 56A]: the inhibition at 1 µM is over 50%.
Same read-out and setting: for `O=C(Nc1ccc(F)cc1)NC12CC3CC(C1)C(C(O)CC1c4ccccc4-c4cncn41)C(C3)C2` (stereo not drawn) [Compound 163B] the value was over 50%.
The molecule `O=C(CO)NC1C2CC3CC1CC(C(O)CC1c4ccccc4-c4cncn41)(C3)C2` (stereo not drawn) [Compound 51A] returned an inhibition at 1 µM of over 50%.
As to `ON=C1C2CC3CC1CC(C(O)CC1c4c(F)cccc4-c4cncn41)(C3)C2` (stereo not drawn) [Compound 80], the “inhibition values of %” value was “greater than 50%”.
As to `O=C1C2CC3CC1CC(C(O)CC1c4c(F)cccc4-c4cncn41)(C3)C2` (stereo not drawn) [Compound 63], the “inhibition values of %” value is “greater than 50%”.
Take `N#CC1C2CC3CC1CC(C(O)CC1c4c(F)cccc4-c4cncn41)(C3)C2` (stereo not drawn) [Compound 76]: the “inhibition values of %” value is recorded as “greater than 50%”.
The molecule `OC(CC1c2c(F)cccc2-c2cncn21)C12CC3CC(C1)C(OCc1ccccc1)C(C3)C2` (stereo not drawn) [Compound 133] came in with an inhibition at 1 µM of over 50%.
Same read-out and setting: for `O=S(=O)(CC1CCC1)NC1C2CC3CC1CC(C(O)CC1c4c(F)cccc4-c4cncn41)(C3)C2` (stereo not drawn) [Compound 67A] the value was over 50%.
On to `O=C(NC1CCOCC1)NC1C2CC3CC1CC(C(O)CC1c4c(F)cccc4-c4cncn41)(C3)C2` (stereo not drawn) [Compound 54], for which the “inhibition values of %” value was “greater than 50%”.
As to `OC(CC1c2c(F)cccc2-c2cncn21)C12CC3CC(C1)C(O)(c1cccnc1)C(C3)C2` (stereo not drawn) [Compound 146], the inhibition at 1 µM was over 50%.
On the same count and under the same terms, in the case of `O=C(NC1CC1)NC1C2CC3CC1CC(C(O)CC1c4c(F)cccc4-c4cncn41)(C3)C2` (stereo not drawn) [Compound 106A] it was over 50%; in that of `O=S(=O)(NC12CC3CC(C1)C(C(O)CC1c4ccccc4-c4cncn41)C(C3)C2)C1CC1` (stereo not drawn) [Compound 169B], over 50%; in that of `O=S(=O)(c1ccccc1)N1C2CC3CC1CC(C(O)CC1c4c(F)cccc4-c4cncn41)(C3)C2` (stereo not drawn) [Compound 206], over 50%.
For the molecule `O=S(=O)(Cc1ccccc1)N1C2CC3CC1CC(C(O)CC1c4c(F)cccc4-c4cncn41)(C3)C2` (stereo not drawn) [Compound 205], the inhibition at 1 µM was over 50%.
Still for that read-out and setting: in the case of `O=S(=O)(Nc1ccc(F)cc1)NC1C2CC3CC1CC(C(O)CC1c4ccccc4-c4cncn41)(C3)C2` (stereo not drawn) [Compound 152] it was over 50%; in that of `O=C(Cc1ccc(F)cc1)N1C2CC3CC1CC(C(O)CC1c4c(F)cccc4-c4cncn41)(C3)C2` (stereo not drawn) [Compound 207], over 50%.
`Cn1cc(NC(=O)NC2C3CC4CC2CC(C(O)CC2c5c(F)cccc5-c5cncn52)(C4)C3)cn1` (stereo not drawn) [Compound 114A] gave an inhibition at 1 µM of over 50%.
`OC(COC1C2CC3CC1CC(C(O)CC1c4c(F)cccc4-c4cncn41)(C3)C2)C1CCCCC1` (stereo not drawn) [Compound 137] gave an inhibition at 1 µM of over 50%.
